Assay results published in US20100184809A1, “Heterocyclic FXR Binding Compounds” (PHENEX PHARMACEUTICALS AG, priority 2006, published 2010).
≈ marks a conversion by molar mass, not a printed value.

Legend:
[1] = Mouse microsomal stability assay; assay type: in vitro ADME; conditions: pH 7.4; mouse liver microsomes, 37° C.
Method: In vitro assays were performed to evaluate the metabolic stability of test items in liver microsomes originating from mouse. Preparation of working standards of test items: Working solutions were prepared for each calibration level by appropriate dilution of the corresponding stock solution, depending on each compound's solubility in acetonitrile or acetonitrile/water. Calibration standards were prepared by spiking 196 μl standard matrix with 4 μl of the corresponding working solution. The standard matrix consists of 0.15 mg/ml of microsomal protein in phosphate buffer (100 mM pH 7.4), the final standard solutions contain 2% acetonitrile. The samples and standard solutions were extracted with ethyl acetate, isolation of the compounds was performed by addition of 600 μl ethyl acetate containing the internal standard (0.1 μM) to 200 μl sample and calibration standard. After vigorously shaking (10 minutes) and centrifugation (5000 g) the aqueous phase was separated by freezing in an acetone/dry ice bath and the organic phase is evaporated to dryness using a vacuum centrifuge. Samples were reconstituted in 200 μl acetonitrile/water mix (1:1 v/v) and subsequently subjected to LC-MS/MS. The incubation solution (180 μl) consisted of 90 μl of a microsomal suspension of 0.33 mg/ml of protein in phosphate buffer 100 mM pH 7.4 and 90 μl NADP-regenerating system. The reaction was initiated by the addition of 20 μl of test compound (in 20% acetonitrile) to the preincubated microsomes/buffer mix at 37° C. 200 μl samples were removed from the incubation after 0, 5, 10, and 30 minutes and processed for ethyl acetate extraction as described above. Negative controls using boiled microsomes (boiling water bath, 25 minutes) without regenerating system were run in parallel. The amount of compound in the samples is expressed as percentage of remaining compound compared to time point zero (=100%). These percentages were plotted against the corresponding time points. Intrinsic clearance (CLint) and half-life (t1/2) estimates were determined using the rate of parent disappearance and following formula (1) and (2). (1) CLint=(−k)×V×fu. (2) t1/2=In2/−k. Where CLint=intrinsic clearance [μl/min/mg protein], t1/2=half life [min], k=slope from the linear regression of log [test compound] versus time plot [1/min]. V=6666.7; fu=unbound fraction in the blood. Applying this protocol gave microsomal stabilities for examples and reference compounds as listed below in Table 9: […]

Caco-2 permeability = assay type: in vitro ADME; conditions: human, apical to basolateral
Method: Caco-2 cells are widely used as an in vitro model for predicting human drug absorption. The Caco-2 cell line is derived from a human colorectal carcinoma, and when cultured, the cells spontaneously differentiate into monolayers of polarised enterocytes. The cells are seeded on Transwell™ plates and form a confluent monolayer over 20 days prior to the experiment. On day 20, the test compound is added to the apical side of the membrane and the transport of the compound across the monolayer is monitored over a 2 hour time period. To study drug efflux, it is also necessary to investigate transport of the compound from the basolateral compartment to the apical compartment. The permeability coefficient (Papp) is calculated from the following equation: […]
Where dQ/dt is the rate of permeation of the drug across the cells, CO is the donor compartment concentration at time zero and A is the area of the cell monolayer.

[2] = Aqueous solubility assay, Protocol B, shake-flask method; assay type: physicochemical; conditions: aqueous buffer, 10 mM PBS buffer pH 7.4, 1% MeOH, room temperature, read-out: Aqueous solubility pH 7.4 (μM) (±standard deviation), shake-flask method
Method: Protocol B, shake-flask method:
Sample preparation: Sample and standard solution preparation is performed by mixing equal volumes of acetonitrile containing the internal standard (1 μM final concentration) with sample and calibration standard solutions (100 μl). After vigorously shaking (10 seconds) the samples are centrifuged (6000 g) for 5 minutes at 20° C. Aliquots of the particle-free supernatants are transferred to 200 μl sample vials and subsequently subjected to LC-MS/MS. Assay procedure: Test concentration was 100 μM in 10 mM PBS buffer pH 7.4 with a final MeOH concentration of 1%. The volume of the incubation solution was 500 μl. Depending on each compound's solubility in MeOH, the stock concentration and the incubation concentration was adapted. The test solutions in quadruplicates were shaken at 300 rpm over a 20 hours period at room temperature, followed by centrifugation at 20000 g for 30 minutes to separate the solid phase. 100 μl of particle free sample are added to 100 μl acetonitrile containing the internal standard. The aqueous solubility of the compounds was determined by measuring the concentration of the PBS buffer supernatant by HPLC-MS/MS.

CC(C)c1onc(-c2c(Cl)cccc2Cl)c1COc1ccc(N(C)Cc2ccc(C(=O)O)cc2)c(C(F)(F)F)n1 [Example 28, 4(((6-((3-(2,6-Dichlorophenyl)-5-isopropylisoxazol-4-yl)methoxy)-2-(trifluoromethyl)pyridin-3-yl)(methyl)amino)methyl)benzoic acid]
melting point: 96.1 to 97.1 °C
half-life [1]: 38 min
microsomal CLint [1]: 120 µL/min/mg

Cc1nc(OCc2c(-c3c(Cl)cccc3Cl)noc2C(C)C)ccc1N(C)S(=O)(=O)c1ccc(C(=O)O)cc1 [Example 4, 4-(N-(6-((3-(2,6-dichlorophenyl)-5-isopropylisoxazol-4-yl)methoxy)-2-methylpyridin-3-yl)—N-methylsulfamoyl)benzoic acid]
Papp A→B at 2 h (Caco-2 permeability): 30 ×10⁻⁶ cm/s

CC(C)c1onc(-c2c(Cl)cccc2Cl)c1COc1ccc(/C=C/c2cccc(C(=O)O)c2)c(Cl)c1 [Compound B, reference compound]
solubility at 20 h [2]: 17.7 µM (≈ 9.61 µg/mL)

CC(C)c1onc(-c2c(Cl)cccc2Cl)c1COc1ccc(N(C)C(=O)c2ccc(C(=O)O)cc2)c(C(F)(F)F)n1 [Example 7, N-{6-[3-(2,6-dichloro-phenyl)-5-isopropyl-isoxazol-4-ylmethoxy]-2-trifluoromethyl-pyridin-3-yl}-N-methyl-terephthalamic acid]
Papp A→B at 2 h (Caco-2 permeability): 32 ×10⁻⁶ cm/s
